Measured values as given in publication PMC10683482, “Offsetting Low-Affinity Carbohydrate Binding with Covalency to Engage Sugar-Specific Proteins for Tumor-Immune Proximity Induction” (ACS Central Science, 2023).

Test system: Hek-PSMA cells
Assay: ADCC reporter (jurkat activation) assay directly in polyclonal human IgG (Figure 5C)
Format: cell-based
Details: 9 μM compound with 230 μM human IgG 24 h, no column step
Protocol: Figure 5 Functional analysis of PSMA-targeting SuFEx cARMs. A. Chemical structure of the functional GU cARM molecule used for PSMA targeting. B. Confocal (top) and fluorescent imaging (bottom) of Hek-PSMA cells treated with anti-23F only or anti-23F antibody pre-incubated with rhamnose-SO2F-cARM 14. C. Jurkat activation assay evaluation of 14 directly in polyclonal human IgG. Each cARM/ARM (9 μM) was incubated with polyclonal human IgG (230 μM) overnight and then added to pre-plated Hek-P cells (50,000 cells). To this cell solution, luciferase expressing jurkat cells were added and incubated for 24 hours. Activation of jurkat cells was determined by measuring luciferase expression with a BioGlo assay kit. D. ADCP assays using various PSMA-expressing model and bonafide cancer cell lines. Each cARM/ARM (8 μM) was incubated with anti-23F (4 μM) overnight followed by addition to target cells (150,000 cells). Next, IFN-γ activated monocytes (150,000 cells) were added and incubated for 1 hour at 37 °C. ADCP was determined via flow cytometry.
Next, the capacity of alkyl-AI-cARM 10, alkyl-ARM 11, and SO2F-cARM 14 to direct immune activation via polyclonal anti-rhamnose antibodies was evaluated using a modified ADCC reporter assay (Figure 5C). ADCC represents a major mode of antitumor NK cell immunotherapeutic function, common to many FDA-approved monoclonal antibody therapies. […]

Row | SMILES | jurkat (immune) activation
1 | C[C@@H]1O[C@@H](OCc2cn(CCc3cn(C(=O)OCCNC(=O)CCCCCNC(=O)CCCCCNC(=O)CCCCCNC(=O)NCCCC[C@H](NC(=O)N[C@@H](CCC(=O)O)C(=O)O)C(=O)O)cn3)nn2)[C@H](O)[C@H](O)[C@H]1O [compound 10] | failed to direct immune activation
2 | C[C@@H]1O[C@@H](OCc2cn(CCCNC(=O)OCCNC(=O)CCCCCNC(=O)CCCCCNC(=O)CCCCCNC(=O)NCCCC[C@H](NC(=O)N[C@@H](CCC(=O)O)C(=O)O)C(=O)O)nn2)[C@H](O)[C@H](O)[C@H]1O [compound 11] | failed to direct immune activation
